{"source": "patent US11571413B2", "about": "“Nicotinamide riboside treatments of domesticated meat animals” (Kansas State University Research Foundation, priority 2017, dated 2023)", "key": {"fertilized broiler eggs": {"system": "fertilized broiler eggs", "experiment": "Immunohistochemical analysis of muscle fiber CSA during in ovo myogenesis (Example 1)", "type": "in vivo, chicken", "conditions": "100 μl 250 mM NR in ovo at 11 d", "procedure": "At 11-days of incubation, 60 fertilized broiler eggs were randomly assigned to completely randomized design with a 2×2 factorial arrangement. Factor 1 comprised treatment, with eggs injected with 100 μl of 0.9% sterile saline solution (NRNeg) or 250 mM NR in sterile saline (NRPos). Factor 2 comprised injection location, with treatments injected into the yolk or albumen. Eggs were incubated at 37±3° C. and a relative humidity of 40±2% for 7 days. Humidity was increased to 60±2% at the same temperature for the final 3 days of incubation. Twenty-four hours after hatching, chicks were euthanized by exposure to CO2 and decapitation. Measurements including chick weight and left Pectoralis major weight, length, and depth were taken for analysis. Immunohistochemical analysis was conducted to determine if NR supplementation increased muscle fiber cross-sectional area (CSA) during in ovo myogenesis. There were no Treatment×Location or Treatment and Location main effects for muscle fiber CSA (P>0.06). […] This is desired heavily in meat producing animals."}, "finished market barrows": {"system": "finished market barrows", "experiment": "Semitendinosus muscle NAD+ content by HPLC (Example V)", "type": "in vivo, pig", "conditions": "30 mg/kg BW oral daily, 10 days", "procedure": "Fourteen days prior to harvest, 20 finished market barrows (initial body weight 268 pounds) were randomly assigned to 1 of 2 treatments: 0 or 30 mg/kg body weight of nicotinamide riboside, both orally administered daily in 20 ml of Karo® Syrup. Ten days prior to harvest, pigs were restrained via a snare and treatments were administered. On day 7, barrows were subjected to a performance test where they were walked around a track at 0.88 m/s until subjective fatigue was achieved. Three days following the performance test, barrows were harvested and a portion of the semitendinosus muscle was collected within 45 minutes. These samples were analyzed for NAD+ content via HPLC methodology."}, "growing pigs": {"system": "growing pigs", "experiment": "Oral NR for 7 days in growing pigs: average daily gain and loin eye area (Example III)", "type": "in vivo, pig", "procedure": "Nine growing pigs were blocked by bodyweight (BW) and placed in metabolism crates. After a 3-day acclimation period, pigs within each BW block were randomly assigned to a treatment (n=3 pigs/treatment). Treatments comprised pigs supplemented 0, 15, or 30 mg/kg BW NR for 7 days. Pigs were allowed ad libitum access to a standard growing diet and water. Treatments were administered daily at 8 a.m. by mixing NR in 20 mL of Karo® dark syrup and orally drenching the pigs. On day 0 and 3 of the trial, muscle biopsies of the LL were taken for NAD+ analysis using standard procedures. At day 7, pigs were transported to the Kansas State University Meats Laboratory and euthanized by a captive penetrating bolt to the brain, followed by exsanguination. Following harvest procedures, 3 g of the LL were collected for NAD+ analysis. Twenty-four hours after harvest, the whole LL not sampled at harvest was removed from the carcass and aged 10 days. After aging, the LL was cut into 6 chops for retail color stability analysis, including 6-day surface oxy- and metmyoglobin percentage, 6-day objective and subjective color panel evaluation, and day 4 and 6 metmyoglobin reducing ability (MRA)."}, "[1]": {"system": "Fertilized broiler eggs (Cobb 500)", "experiment": "In ovo feeding of NR into yolk or albumen: hatched chick body and pectoralis major morphometrics (Example VI)", "type": "in vivo, chicken", "conditions": "hatched chicks", "procedure": "Fertilized broiler eggs (N=156; Cobb 500; Cobb-Vantress, Siloam Springs, Ark.) with an average weight of 70.3 g were transported in coolers to the Kansas State University Muscle Biology Laboratory (Manhattan, Kans.). Upon arrival, egg weights were recorded, eggs were ordered by weight, and within each 4 egg strata, eggs were randomly assigned to treatments within a 2×2 factorial arrangement. Factor 1 was NR treatment with eggs receiving 0 or 250 mM NR (ChromaDex, Los Angeles, Calif.). Factor 2 was injection location, with treatments injected into either the yolk or albumen. After treatment assignment, eggs were positioned with equal treatment representation onto trays and placed in an incubator (Sportsman 1502; GQF Manufacturing Company Inc., Savannah, Ga.) set to operate at a temperature of 37° C. and a relative humidity of 40±2% for the first 18 d of incubation. The incubator rotated hourly to reposition eggs, and trays were rotated daily throughout the incubator to account for variation in temperature and humidity. Tray weights were recorded each day to determine egg weight loss percentage with a target weight loss of 0.67% per day.\nAt d 10 of incubation, NR with the equivalent weight of 250 mM was added to 0.9% sterile saline and covered with foil to prevent exposure to light. Sets of 20 eggs representing equal treatment numbers were removed from the incubator, candled to determine location of the yolk and albumen, and the injection site was cleaned with 70% ethanol. Eggs were turned at a 90° angle and a 2.54-cm, 20-guage hypodermic needle was used to create an opening in the shell at the proper injection site. The needle was inserted approximately 1 cm into injection site and 100 μl of the 250 mM NR solution or 0.9% saline solution was injected into the egg. A 1-cm^2 portion of medical tape (Nexcare; 3M, Maplewood, Minn.) was positioned over the injection location and eggs were returned to the incubator.\nOn d 18 of incubation, the relative humidity of the incubator was increased to 60±2% and eggs were placed into hatching boxes at the bottom of the incubator. As chicks began to hatch, they were removed from the incubator, marked for treatment, and relocated to a box positioned underneath a heat lamp. Approximately 12 to 24 h after hatch, chicks were euthanized by prolonged exposure to CO2 gas and decapitation. Chick weights were recorded, and digital calipers (Traceable Digital Calipers; Fisher Scientific, Pittsburg, Pa.) were utilized to measure crown to rump length, head width, head length. Head and chest circumference were also collected by wrapping a string around the designated area and determining the length against a ruler.\nChick carcasses were sprayed with 70% ethanol and the skin and feathers were pulled back to reveal the pectoralis major (PM) muscles. Prior to PM muscles removal, chest width and length were measured using digital calipers. The left and right PM muscles were removed, careful to not remove the pectoralis minor muscles. The left PM was weighed and dimensions were collected using digital calipers, including length, width, and depth. This muscle was positioned onto a tongue depressor and placed into a −80° C. freezer, where it was stored until it was used for cryosectioning. The heart and liver were also removed, weighed, and discarded."}, "[2]": {"conditions": "250 mM NR, 100 μl into albumen d 10"}, "[3]": {"conditions": "250 mM NR, 100 μl into yolk d 10"}}, "note": "Where “and” joins values, the source holds several entries; their conditions need not be identical. Equal values may be shown once. Marks after values point to notes of the source that are not given here."}
{"smiles": "NC(=O)c1ccc[n+]([C@@H]2O[C@H](CO)[C@@H](O)[C@H]2O)c1", "note": "[Nicotinamide riboside, nicotinamide riboside]", "values": [{"measurement": "Muscle fiber cross-sectional area (CSA)", "setting": "fertilized broiler eggs", "value": "did not increase"}, {"measurement": "Increase of NAD+ in the semitendinosus muscle (tendency, P=0.09)", "setting": "finished market barrows", "value": 62, "unit": "%"}, {"measurement": "Loin eye area (LEA) vs 0 mg/kg", "setting": "growing pigs; 15 mg/kg BW oral daily", "value": "did not differ"}, {"measurement": "Better ADG compared to pigs in the other two treatments (numerical trend)", "setting": "growing pigs; 30 mg/kg BW oral daily", "value": 4.4, "unit": "%"}, {"measurement": "Larger loin eyes than pigs fed 0 mg/kg NR", "setting": "growing pigs; 30 mg/kg BW oral daily", "value": 52, "unit": "%"}, {"measurement": "Larger loin eyes than pigs fed 15 mg/kg NR", "setting": "growing pigs; 30 mg/kg BW oral daily", "value": 48, "unit": "%"}, {"measurement": "Increase of PM weight", "setting": "[1]; 250 mM NR into the yolk sac", "value": 38, "unit": "%"}, {"measurement": "Increase of PM length", "setting": "[1]; 250 mM NR into the yolk sac, listed as NR", "value": "22% and 21%"}, {"measurement": "Body weight", "setting": "[1]; [2]", "value": 43.19, "unit": "g"}, {"measurement": "Chest length", "setting": "[1]; [2]", "value": 21.98, "unit": "mm"}, {"measurement": "Chest width", "setting": "[1]; [2]", "value": 16.57, "unit": "mm"}, {"measurement": "Crown-rump length", "setting": "[1]; [2]", "value": 96.14, "unit": "mm"}, {"measurement": "Head circumference", "setting": "[1]; [2]", "value": 32.14, "unit": "mm"}, {"measurement": "Head length", "setting": "[1]; [2]", "value": 21.29, "unit": "mm"}, {"measurement": "Head width", "setting": "[1]; [2]", "value": 15.56, "unit": "mm"}, {"measurement": "Heart weight", "setting": "[1]; [2]", "value": 0.35, "unit": "g"}, {"measurement": "Liver weight", "setting": "[1]; [2]", "value": 1.05, "unit": "g"}, {"measurement": "Pectoralis major depth", "setting": "[1]; [2]", "value": 2.43, "unit": "mm"}, {"measurement": "Pectoralis major length", "setting": "[1]; [2]", "value": "18.68^b mm"}, {"measurement": "Pectoralis major weight", "setting": "[1]; [2]", "value": "0.14^a g"}, {"measurement": "Pectoralis major width", "setting": "[1]; [2]", "value": 4.81, "unit": "mm"}, {"measurement": "Body weight", "setting": "[1]; [3]", "value": 44.02, "unit": "g"}, {"measurement": "Chest length", "setting": "[1]; [3]", "value": 22.68, "unit": "mm"}, {"measurement": "Chest width", "setting": "[1]; [3]", "value": 17.69, "unit": "mm"}, {"measurement": "Crown-rump length", "setting": "[1]; [3]", "value": 89.36, "unit": "mm"}, {"measurement": "Head circumference", "setting": "[1]; [3]", "value": 31.49, "unit": "mm"}, {"measurement": "Head length", "setting": "[1]; [3]", "value": 21.73, "unit": "mm"}, {"measurement": "Head width", "setting": "[1]; [3]", "value": 15.45, "unit": "mm"}, {"measurement": "Heart weight", "setting": "[1]; [3]", "value": 0.36, "unit": "g"}, {"measurement": "Liver weight", "setting": "[1]; [3]", "value": 1.11, "unit": "g"}, {"measurement": "Pectoralis major depth", "setting": "[1]; [3]", "value": 2.65, "unit": "mm"}, {"measurement": "Pectoralis major length", "setting": "[1]; [3]", "value": "20.74^c mm"}, {"measurement": "Pectoralis major weight", "setting": "[1]; [3]", "value": "0.18^b g"}, {"measurement": "Pectoralis major width", "setting": "[1]; [3]", "value": 5.21, "unit": "mm"}, {"measurement": "Increase of PM width", "setting": "[1]; 250 mM NR, regardless of injection location", "value": 9, "unit": "%"}, {"measurement": "Increase of PM depth", "setting": "[1]; 250 mM NR, regardless of injection location, listed as NR", "value": "11% and 10%"}]}
